# Entries after “also recorded” stand apart in the source; their conditions may differ.
# B1: MBP-ANAT fusion enzyme (Homo sapiens) (protein)
# chain: MHCGPPDMVCETKIVAAEDHEALPGAKKDALLAAAGAMWPPLPAAPGPAAAPPAPPPAPVAQPHGGAGGAGPPGGRGVCIREFRAAEQEAARRIFYDGIMERIPNTAFRGLRQHPRAQLLYALLAALCFAVSRSLLLTCLVPAALLGLRYYYSRKVIRAYLECALHTDMADIEQYYMKPPGSCFWVAVLDGNVVGIVAARAHEEDNTVELLRMSVDSRFRGKGIAKALGRKVLEFAVVHNYSAVVLGTTAVKVAAHKLYESLGFRHMGASDHYVLPGMTLSLAERLFFQVRYHRYRLQLREE
# B2: native enzyme: human aspartate N-acetyltransferase without the MBP fusion domain (protein, UniProt Q8N9F0 1-302, looked up)
# N-acetylaspartate synthetase: B1 chain
# Assays:
# [1] = target: T1, MBP-ANAT fusion enzyme (Homo sapiens, UniProt Q8N9F0); assay: DTNB-based ANAT enzyme activity assay, substrate kinetics; type: biochemical; conditions: for catalytic efficiency as alternative substrate relative to physiological substrate: alternative acetyl group acceptor vs L-aspartate; for alternative substrate activity: screen of amino acid library of 160 compounds
# T1 construct: the full length ANAT enzyme has been expressed and purified in a fusion construct with MBP; made in house; host or cells: E. coli NiCo21(DE3)
# T1 sequence (Q8N9F0 1-302): B1 chain
# Description: (§1) The ANAT activity was measured by an established DTNB-based assay in which the coenzyme A product participates in a thiol exchange reaction with DTNB. This assay is illustrated in FIGS. 4A-4B. The resulting TNB^2− ion was monitored at 412 nm (c=14.15 mM^−1cm^−1) using a SpectraMax 190 spectrophotometer plate reader (Molecular Devices, CA).
# (§2) The DTNB-based assay was used to measure the kinetic parameters for the physiological substrates and some alternative ANAT substrates.
# The kinetic parameters for the physiological substrates of ANAT were determined using the assay described above by varying the concentrations of both substrates and fitting the data to the equation for a sequential kinetic mechanism (eq. 1). […] A screen for alternative substrates was conducted using a customized amino acid library containing a total of 160 compounds.
# [2] = target: T2, membrane-bound ANAT (Homo sapiens, UniProt Q8N9F0); assay: Detergent solubilization/extraction of native ANAT from membrane fraction
# T2 construct: polyhistidine tag (C); made in house; host or cells: E. coli BL21(DE3), membrane fraction
# T2 sequence (Q8N9F0 1-302): B1 chain
# Description: The human nat8l gene was cloned into the pETDEST42 plasmid using the Gateway cloning technology (Life Technologies). This plasmid was used to transform E. coli BL21(DE3) cells for protein production. The cells were grown at 37° C. to an A600 of 0.6-0.8 in Luria-Bertani (LB) medium containing 100 μg/mL ampicillin, and gene expression was then induced with 1 mM isopropyl […] (IPTG) at 28° C. for 5 hours. The cell pellet was resuspended in buffer A [50 mM HEPES, 500 mM NaCl and 10% glycerol (pH 7.4)] and lysed by sonication on ice for 8 min with 30 s pulse on and 2 min pulse off cycle. The cell lysate was centrifuged at 11,000 rpm for 30 minutes to pellet cell debris and unlysed cells. The membrane fraction was collected by high-speed centrifugation of the supernatant at 40,000 rpm for 1 h. Solubilization trials of ANAT from the membrane fraction were conducted with a variety of different detergents that include ionic, non-ionic, and zwitterionic detergents. Twenty microliter aliquots of the resuspended membrane fraction were mixed with different amounts of stock detergent solutions each prepared at 10 times their critical micelle concentration (CMC), leading to a final concentration of 1.5×CMC and […]. These solutions were incubated at room temperature for 1 h or at 4° C. overnight in a rocking platform.
# [3] = target: ANAT fusion enzyme with GST (Homo sapiens, UniProt Q8N9F0); conditions: L-aspartate as substrate
# Description: as §1, §2
# [4] = target: T1, MBP-ANAT fusion enzyme; assay: Effect of detergents on ANAT activity (DTNB-based assay, saturating substrates); type: biochemical; conditions: incubation with detergent at CMC
# Description: This assay is illustrated in FIGS. 4A-4B.
# (§3) The effect of detergent properties on ANAT activity was tested using a variety of different detergents, each at their critical micelle concentration (CMC) levels. All measurements were conducted at least in duplicate by using the DTNB-based assay at saturating substrates levels. The effect of an organic solvent on ANAT activity was also evaluated by varying the DMSO concentration in the assay from 0 to 50%. To test the stability of the purified MBP-ANAT-his construct, the enzyme was stored at 4° C. for several days and activity was monitored daily. To test for the optimal long term storage conditions, the enzyme activity was followed through multiple freeze-thaw cycles between −80° C. and room temperature.
# [5] = substrate: CC(=O)SCCNC(=O)CCNC(=O)[C@H](O)C(C)(C)COP(=O)(O)OP(=O)(O)OC[C@H]1O[C@@H](n2cnc3c(N)ncnc32)[C@H](O)[C@@H]1OP(=O)(O)O; assay: purified protein, by the assay type; conditions: other: acetyl-CoA as substrate, MBP-ANAT fusion, sequential mechanism fit, pH 7.4
# [6] = Enzyme stability on storage at 4° C. and freeze-thaw cycles; type: physicochemical; conditions: stored at 4° C. for several days to one week, assayed daily
# Description: as §3
molecule,measurement,setting,value
"NC(C(=O)O)C(N)C(=O)O (stereo not drawn) [2,3-diaminosuccinate]",catalytic efficiency as alternative substrate relative to physiological substrate,[1],less than 10%
CCCCCCCCCCCCOCCOCCOCCOCCOCCOCCOCCOCCO [C12E8],extraction efficiency of membrane-bound ANAT,"[2]; non-ionic detergents, 1.5 CMC",highest extraction efficiency
N[C@@H](CCC(=O)O)C(=O)O [L-glutamate],catalytic efficiency as alternative substrate relative to physiological substrate,[1],less than 1%
same,alternative substrate activity,[1],profound loss of activity
N[C@@H](CC(=O)O)C(=O)O [L-aspartate],Km,"[1]; L-aspartate as substrate, MBP-ANAT fusion, sequential mechanism fit, pH 7.4",160 µM
same,Km,[3],100 µM
CC(C(=O)O)[C@H](N)C(=O)O (stereo partly drawn) [β-methylaspartate],alternative substrate activity,[1],best of these few alternative substrates; also recorded: profound loss of activity
OC[C@H]1O[C@H](O[C@H]2[C@H](O)[C@@H](O)[C@H](OCCCCCC3CCCCC3)O[C@@H]2CO)[C@H](O)[C@@H](O)[C@@H]1O [Cymal 5],loss of catalytic activity,[4],significant loss of activity
same,extraction efficiency of membrane-bound ANAT,[2]; 8.7 CMC,effective
CCCCCCCCO[C@@H]1O[C@H](CO)[C@@H](O)[C@H](O)[C@H]1O [octylglucoside],loss of catalytic activity,[4],significant loss of activity
CCCCCCCCCCCCOS(=O)(=O)[O-].[Na+] [SDS],loss of catalytic activity,[4],nearly complete loss of catalytic activity
CCCCCCCCCCCCO[C@@H]1O[C@H](CO)[C@@H](O[C@H]2O[C@H](CO)[C@@H](O)[C@H](O)[C@H]2O)[C@H](O)[C@H]1O [DDM],extraction efficiency of membrane-bound ANAT,[2]; 8.7 CMC,effective
CCCCCCCCCCCC[N+](C)(C)[O-] [LDAO],loss of catalytic activity,[4],nearly complete loss of catalytic activity
B1,Km,[5],3.1 µM
B2,loss of activity on storage,[6],substantial loss of catalytic activity

# From patent publication US20180340156A1, “PURIFICATION OF A SOLUBLE AND ACTIVE FORM OF ASPARTATE N-[…]” (The University of Toledo, priority 2015, published 2018)
